These results are taken from ChEMBL document CHEMBL1148617, “Design, synthesis, and structure-activity relationships of 1-,3-,8-, and 9-substituted-9-deazaxanthines at the human A2B adenosine receptor” (J Med Chem, 2006).

In assay [1] the target is T1, Adenosine receptor A2a (Homo sapiens, UniProt P29274).
Description: Binding affinity to recombinant human adenosine A2A receptor
The target of assay [2] is T2, Adenosine receptor A2b (Homo sapiens) (UniProt P29275).
T2 sequence (whole entry): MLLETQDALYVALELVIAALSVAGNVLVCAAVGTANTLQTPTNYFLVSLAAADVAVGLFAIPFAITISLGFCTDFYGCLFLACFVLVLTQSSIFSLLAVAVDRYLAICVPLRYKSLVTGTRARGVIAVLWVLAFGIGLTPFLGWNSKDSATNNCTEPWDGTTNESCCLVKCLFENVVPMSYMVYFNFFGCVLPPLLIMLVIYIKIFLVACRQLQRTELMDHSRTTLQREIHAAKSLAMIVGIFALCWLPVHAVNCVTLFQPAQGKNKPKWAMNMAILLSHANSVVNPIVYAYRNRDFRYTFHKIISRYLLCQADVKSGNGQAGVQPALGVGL
In words: Displacement of [3H]DPCPX from recombinant human adenosine A2B receptor expressed in HEK293 cells at 0.1 uM. The class given is cell-based. (Displacement assays read how much labelled ligand stays bound in the presence of the test substance.)

Assay [3] concerns the target T1, Adenosine receptor A2a. In words: Displacement of [3H]ZM-241385 from recombinant human adenosine A2A receptor expressed in HeLa cells at 0.1 uM.
A further assay deals with T3, Adenosine receptor A2b (Homo sapiens, UniProt P29275).
T3 sequence (P29275 whole entry): T2 sequence (whole entry)

T1 sequence (P29274 whole entry): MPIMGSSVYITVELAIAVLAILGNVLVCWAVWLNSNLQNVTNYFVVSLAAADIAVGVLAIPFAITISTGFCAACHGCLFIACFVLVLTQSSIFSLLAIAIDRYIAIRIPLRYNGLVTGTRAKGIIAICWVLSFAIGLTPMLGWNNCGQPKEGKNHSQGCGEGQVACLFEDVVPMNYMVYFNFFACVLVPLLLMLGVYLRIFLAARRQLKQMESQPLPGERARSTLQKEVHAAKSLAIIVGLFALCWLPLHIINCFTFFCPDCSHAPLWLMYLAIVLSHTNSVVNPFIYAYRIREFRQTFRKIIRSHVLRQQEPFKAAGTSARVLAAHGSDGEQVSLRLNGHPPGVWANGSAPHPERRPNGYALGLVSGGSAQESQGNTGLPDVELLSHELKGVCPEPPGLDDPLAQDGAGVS

A word on the Ki: it is a dissociation constant, usually derived from enzyme kinetics or from competition with a known ligand. Usually inhibition stands for the share of the control response that was lost under treatment. `CCCn1c(=O)n(C)c(=O)c2[nH]c(-c3ccc(OCC(=O)O)cc3)cc21`: the Ki was 776 nM at Adenosine receptor A2a [1] and 45.7 nM at Adenosine receptor A2b. Moreover, the inhibition in assay [2] was 51%; on Adenosine receptor A2a [3] it was 15%.

Consider `CCCn1c(=O)c2[nH]c(-c3ccc(OCC(=O)O)cc3)c(Cl)c2n(CCC)c1=O`, for which the values for the Ki on Adenosine receptor A2a [1] and at Adenosine receptor A2b were 398 nM and 158 nM, respectively. The inhibition in assay [2] worked out at 36%; on Adenosine receptor A2a [3], 19%.

For the molecule `CCCn1c(=O)c2[nH]c(-c3ccc(OCC(=O)c4ccc(I)cc4)cc3)nc2n(CCC)c1=O`, the Ki on Adenosine receptor A2a [1] was 2.14 nM; on Adenosine receptor A2b, 5890 nM.

Consider `CCCn1c(=O)c2[nH]c(-c3ccc(OCC(=O)Nc4ccc(I)cc4)cc3)nc2n(CCC)c1=O`, for which the Ki at Adenosine receptor A2a [1] was 5890 nM.

Turning to `CCOC(=O)COc1ccc(-c2cc3c([nH]2)c(=O)n(C)c(=O)n3C)cc1OC`, the Ki on Adenosine receptor A2a [1] was 3720 nM; on Adenosine receptor A2b it was 1510 nM. Also, the inhibition in assay [2] was 8%; on Adenosine receptor A2a [3], 18%.

Consider `CCCn1c(=O)c2[nH]c(-c3ccc(OCC(=O)O)cc3)c(Br)c2n(CCC)c1=O`, for which the Ki at Adenosine receptor A2a [1] is 490 nM; at Adenosine receptor A2b, 79.4 nM. Moreover, the inhibition in assay [2] amounted to 48%; on Adenosine receptor A2a [3], 11%.

Turning to `CCCn1c(=O)c2[nH]c(-c3ccc(OC(C)C(=O)O)cc3)cc2n(CCC)c1=O` (configuration not stated), the values for the Ki at Adenosine receptor A2a [1] and on Adenosine receptor A2b were 1000 nM and 43.7 nM, respectively. In addition, the inhibition amounted to 44% in assay [2] and 8% at Adenosine receptor A2a [3].

Consider `CCCn1c(=O)c2nc(-c3cc(OCC(=O)c4ccc(C(C)=O)cc4)nn3C)[nH]c2n(CCC)c1=O`, for which the Ki on Adenosine receptor A2a [1] is 87.1 nM; at Adenosine receptor A2b, over 1000 nM.

For `CCCn1c(=O)c2[nH]c(-c3cc(OCC(=O)c4ccc(C)cc4)nn3C)nc2n(CCC)c1=O`, the Ki at Adenosine receptor A2a [1] is 19.1 nM; at Adenosine receptor A2b, over 1000 nM.

Regarding `CCCn1c(=O)c2[nH]c(-c3ccc(OCC(=O)c4ccc(I)cc4)nn3)nc2n(CCC)c1=O`, the Ki on Adenosine receptor A2a [1] and on Adenosine receptor A2b was over 1000 nM each time.

With `CCOC(=O)COc1ccc(-c2cc3c([nH]2)c(=O)n(C)c(=O)n3CCCOC)cc1`, the values for the Ki at Adenosine receptor A2a [1] and at Adenosine receptor A2b were 1860 nM and 372 nM, respectively. For the same molecule, the figures for the inhibition (in assay [2]; on Adenosine receptor A2a [3]) were 22% and 5%, respectively.

In the case of `CCCn1c(=O)c2nc(-c3ccc(OCC(=O)c4ccc(I)cc4)cn3)[nH]c2n(CCC)c1=O`, the Ki is 11 nM at Adenosine receptor A2a [1] and over 1000 nM on Adenosine receptor A2b.

`CCCn1c(=O)c2nc(-c3cc(OCC(=O)c4ccc(Br)cc4)n(C)n3)[nH]c2n(CCC)c1=O`: the figures for the Ki at Adenosine receptor A2a [1] and at Adenosine receptor A2b were 93.3 nM and over 1000 nM, respectively.

For `CCn1c(=O)c2[nH]c(-c3ccc(OCC(=O)O)cc3)cc2n(CCCOC)c1=O`, the values for the Ki on Adenosine receptor A2a [1] and at Adenosine receptor A2b were 933 nM and 72.4 nM, respectively. The inhibition in assay [2] was 66%; on Adenosine receptor A2a [3], 20%.

For the molecule `COCCCn1c(=O)n(C)c(=O)c2[nH]c(-c3ccc(OCC(=O)O)cc3)cc21`, the Ki was 11500 nM at Adenosine receptor A2a [1] and 214 nM at Adenosine receptor A2b. The inhibition in assay [2] amounted to 35%; on Adenosine receptor A2a [3] it was 11%.

Regarding `CCCn1c(=O)c2nc(-c3cc(OCC(=O)c4ccc(C(=O)OCC)cc4)nn3C)[nH]c2n(CCC)c1=O`, the Ki was 32.4 nM on Adenosine receptor A2a [1] and over 1000 nM at Adenosine receptor A2b.

As for `CCCn1c(=O)c2nc(-c3cc(OCC(=O)c4ccc(F)cc4)n(C)n3)[nH]c2n(CCC)c1=O`, the values for the Ki at Adenosine receptor A2a [1] and at Adenosine receptor A2b were 186 nM and over 1000 nM, respectively.

Regarding `CCCn1c(=O)c2[nH]c(-c3ccc(OCC(=O)Nc4ccc(Cl)cc4)cc3)nc2n(CCC)c1=O`, the Ki is 191 nM at Adenosine receptor A2a [1] and 7.94 nM on Adenosine receptor A2b.

Consider `CCCn1c(=O)c2nc(-c3cc(OCC(=O)c4ccc(F)cc4)nn3C)[nH]c2n(CCC)c1=O`, for which the Ki at Adenosine receptor A2a [1] is 12.6 nM; at Adenosine receptor A2b, over 1000 nM.

`CCCn1c(=O)c2[nH]c(-c3ccc(OCC(=O)O)cc3)cc2n(CCC)c1=O`: the Ki on Adenosine receptor A2a [1] was 123 nM; on Adenosine receptor A2b, 15.8 nM.

Take `CCCn1c(=O)c2[nH]c(-c3cc(OCC(=O)c4ccc(Br)cc4)nn3C)nc2n(CCC)c1=O`: the figures for the Ki at Adenosine receptor A2a [1] and at Adenosine receptor A2b were 25.1 nM and over 1000 nM, respectively.
